Experimental data taken from patent US20250098679A1, “HERBICIDAL PYRIDONE DERIVATIVES” (SYNGENTA CROP PROTECTION AG, priority 2021, published 2025).

Experiments:
Format in all cases: in vivo
[1] = test system: Amaranthus retoflexus (AMARE); assay: Pre-emergence Test, Amaranthus retoflexus (AMARE); settings: evaluated after 13 days
Setaria faberi (SETFA) = assay: Post-emergence Test, Setaria faberi (SETFA); design: key to percentage damage caused to the plant, SETFA (five-point scale): 5=81-100%, 4=61-80%, 3=41-60%, 2=21-40%, 1=0-20% damage; settings: 1000 g/ha, evaluated after 13 days
Outline: (§1)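 Pots sprayed with compound in acetone/water (50:50) with 0.5% Tween 20, at 1000 g/ha unless noted, glasshouse 24/16 °C, 14 h light, 65% humidity. Damage scored 13 days after spraying on a five-point scale (5=81-100% to 1=0-20%).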

[2] = test system: Ipomoea hederacea (IPOHE); assay: Pre-emergence Test, Ipomoea hederacea (IPOHE); settings: evaluated after 13 days
[3] = test system: Echinochloa crus-galli (ECHCG); assay: Pre-emergence Test, Echinochloa crus-galli (ECHCG); settings: evaluated after 13 days
[4] = test system: Echinochloa crus-galli (ECHCG); assay: Post-emergence Test, Echinochloa crus-galli (ECHCG); design: key to percentage damage caused to the plant, ECHCG (five-point scale): 5=81-100%, 4=61-80%, 3=41-60%, 2=21-40%, 1=0-20% damage; settings: 250 g/Ha, evaluated after 13 days
Outline: as §1

Zea mays (ZEAMX) [5] = assay: Pre-emergence Test, Zea mays (ZEAMX); settings: evaluated after 13 days
[6] = test system: Amaranthus palmeri (AMAPA); assay: Post-emergence Test, Amaranthus palmeri (AMAPA); design: key: 5=81-100%, 4=61-80%, 3=41-60%, 2=21-40%, 1=0-20% damage; settings: evaluated after 13 days
Outline: as §1

Zea mays (ZEAMX) [7] = assay: Post-emergence Test, Zea mays (ZEAMX); design: key to percentage damage caused to the plant, ZEAMX (five-point scale): 5=81-100%, 4=61-80%, 3=41-60%, 2=21-40%, 1=0-20% damage; settings: evaluated after 13 days
Outline: as §1

[8] = test system: Ipomoea hederacea (IPOHE); assay: Post-emergence Test, Ipomoea hederacea (IPOHE); design: key to percentage damage caused to the plant, IPOHE (five-point scale): 5=81-100%, 4=61-80%, 3=41-60%, 2=21-40%, 1=0-20% damage; settings: evaluated after 13 days
Outline: as §1

[9] = test system: Amaranthus retoflexus (AMARE); assay: Post-emergence Test, Amaranthus retoflexus (AMARE); design: key to percentage damage caused to the plant, AMARE (five-point scale): 5=81-100%, 4=61-80%, 3=41-60%, 2=21-40%, 1=0-20% damage; settings: evaluated after 13 days
Outline: as §1

[10] = test system: Amaranthus palmeri (AMAPA); assay: Pre-emergence Test, Amaranthus palmeri (AMAPA); settings: evaluated after 13 days

Row | SMILES | Pre-emergence Test AMARE, percentage damage caused to the plant (five-point scale) ([1]; 250 g/Ha (*)) | Pre-emergence Test AMARE, percentage damage caused to the plant (five-point scale) ([1]; 1000 g/ha) | percentage damage caused to the plant, SETFA (five-point scale) (Setaria faberi (SETFA)) | Pre-emergence Test IPOHE, percentage damage caused to the plant (five-point scale) ([2]; 250 g/Ha (*)) | Pre-emergence Test IPOHE, percentage damage caused to the plant (five-point scale) ([2]; 1000 g/ha) | Pre-emergence Test ECHCG, percentage damage caused to the plant (five-point scale) ([3]; 250 g/Ha (*)) | Pre-emergence Test ECHCG, percentage damage caused to the plant (five-point scale) ([3]; 1000 g/ha) | percentage damage caused to the plant, ECHCG (five-point scale) [4] | Pre-emergence Test ZEAMX, percentage damage caused to the plant (five-point scale) (Zea mays (ZEAMX) [5]; 250 g/Ha (*)) | Pre-emergence Test ZEAMX, percentage damage caused to the plant (five-point scale) (Zea mays (ZEAMX) [5]; 1000 g/ha) | percentage damage caused to the plant, AMAPA (five-point scale) ([6]; 250 g/Ha) | percentage damage caused to the plant, AMAPA (five-point scale) ([6]; 1000 g/ha) | percentage damage caused to the plant, ZEAMX (five-point scale) (Zea mays (ZEAMX) [7]; 250 g/Ha) | percentage damage caused to the plant, ZEAMX (five-point scale) (Zea mays (ZEAMX) [7]; 1000 g/ha) | percentage damage caused to the plant, IPOHE (five-point scale) ([8]; 250 g/Ha) | percentage damage caused to the plant, IPOHE (five-point scale) ([8]; 1000 g/ha) | percentage damage caused to the plant, AMARE (five-point scale) ([9]; 250 g/Ha) | percentage damage caused to the plant, AMARE (five-point scale) ([9]; 1000 g/ha) | Pre-emergence Test AMAPA, percentage damage caused to the plant (five-point scale) ([10]; 250 g/Ha (*)) | Pre-emergence Test AMAPA, percentage damage caused to the plant (five-point scale) ([10]; 1000 g/ha)
1 | CCn1c(Cn2ccc([N+](=O)[O-])n2)cc(=O)c(C(=O)O)c1-c1ccc(Cl)c(Cl)c1 [Compound 178, 2-(3,4-dichlorophenyl)-1-ethyl-6-[(3-nitropyrazol-1-yl)methyl]-4-oxo-pyridine-3-carboxylic acid] | 0 | 0 | 2 (2=21-40%) | 0 | 0 | 1 (1=0-20%) | 2 (2=21-40%) | 1 (1=0-20%) | 0 | 0 | 1 (1=0-20%) | 1 (1=0-20%) | 0 | 0 | 1 (1=0-20%) | 0 | 0 | 1 (1=0-20%) | 0 | 0
2 | CCn1c(Cn2ccc(Br)n2)cc(=O)c(C(=O)O)c1-c1ccc(Cl)c(Cl)c1 [Compound 177, 6-[(3-bromopyrazol-1-yl)methyl]-2-(3,4-dichlorophenyl)-1-ethyl-4-oxo-pyridine-3-carboxylic acid] | 0 | 1 (1=0-20%) | 4 (4=61-80%) | 1 (1=0-20%) | 2 (2=21-40%) | 4 (4=61-80%) | 5 (5=81-100%) | 3 (3=41-60%) | 0 | 0 | 2 (2=21-40%) | 2 (2=21-40%) | 1 (1=0-20%) | 1 (1=0-20%) | 4 (4=61-80%) | 3 (3=41-60%) | 1 (1=0-20%) | 3 (3=41-60%) | 1 (1=0-20%) | 1 (1=0-20%)
3 | CCn1c(Cn2ccc(OCC(F)(F)F)n2)cc(=O)c(C(=O)O)c1-c1ccc(Cl)c(Cl)c1 [Compound 185, 2-(3,4-dichlorophenyl)-1-ethyl-4-oxo-6-[[3-(2,2,2-trifluoroethoxy)pyrazol-1-yl]methyl]pyridine-3-carboxylic acid] | 1 (1=0-20%) | 3 (3=41-60%) | 4 (4=61-80%) | 1 (1=0-20%) | 3 (3=41-60%) | 1 (1=0-20%) | 5 (5=81-100%) | 3 (3=41-60%) | 0 | 3 (3=41-60%) | 1 (1=0-20%) | 3 (3=41-60%) | 1 (1=0-20%) | 4 (4=61-80%) | 3 (3=41-60%) | 3 (3=41-60%) | 1 (1=0-20%) | 3 (3=41-60%) | 1 (1=0-20%) | 2 (2=21-40%)
